Measured values as given in patent US8420823B2, “Long-chain fatty acyl elongase inhibitor comprising arylsulfonyl derivative as active ingredient” (MSD K.K., priority 2008, dated 2013).

Molecular target: T1, human LCE (Homo sapiens, UniProt Q9H5J4)
T1 sequence (Q9H5J4 1-265): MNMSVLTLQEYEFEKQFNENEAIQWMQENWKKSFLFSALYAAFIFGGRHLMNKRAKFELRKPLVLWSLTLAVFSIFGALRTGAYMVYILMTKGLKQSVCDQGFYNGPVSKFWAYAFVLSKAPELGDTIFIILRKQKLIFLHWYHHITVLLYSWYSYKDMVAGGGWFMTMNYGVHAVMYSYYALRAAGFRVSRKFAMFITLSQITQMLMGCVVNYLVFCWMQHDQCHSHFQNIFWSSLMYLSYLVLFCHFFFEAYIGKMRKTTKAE
Assay: LCE enzyme activity-inhibitory test
Type: biochemical
Conditions: [14C]-malonyl CoA / palmitoyl CoA substrate, 37° C., 90 minutes
How it was run: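 Human LCE (100 μg/mL in enzyme solution) was incubated 90 min at 37 °C in 100 mM potassium phosphate pH 6.5 with palmitoyl CoA, malonyl CoA, [14C]-malonyl CoA, rotenone and fatty acid-free BSA. Acid-stopped, hydrolyzed products were captured on GF/C filters and counted by scintillation. Inhibition was calculated against DMSO control.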

| Compound | IC50 [nM] |
| --- | --- |
| COc1cc(Oc2ccccc2)cnc1NC(=O)c1cccc(S(=O)(=O)N2CCCC2)c1 [Example 110, N-(3-methoxy-5-phenoxypyridin-2-yl)-3-(pyrrolidin-1-ylsulfonyl)benzamide] | 210 |
| COc1cc(Sc2ccccc2)cnc1NC(=O)c1cccc(S(=O)(=O)N2CCCC2)c1 [Example 111, N-[3-methoxy-5-(phenylthio)pyridin-2-yl]-3-(pyrrolidin-1-ylsulfonyl)benzamide] | 250 |
| COc1cc(S(=O)(=O)c2ccccc2)cnc1NC(=O)c1cccc(S(=O)(=O)N2CCCC2)c1 [Example 112, N-[3-methoxy-5-(phenylsulfonyl)pyridin-2-yl]-3-(pyrrolidin-1-ylsulfonyl)benzamide] | 9500 |
| CCOc1cccnc1NC(=O)c1cccc(S(=O)(=O)N2CCCC2)c1 [Example 113, N-(3-ethoxypyridin-2-yl)-3-(pyrrolidin-1-ylsulfonyl)benzamide] | 400 |
| N#Cc1nc[nH]c1NC(=O)c1cccc(S(=O)(=O)N2CCCCC2)c1 [Example 114, N-(4-cyano-1H-imidazol-5-yl)-3-(piperidin-1-ylsulfonyl)benzamide] | 2800 |
| O=C(Nc1cc(C2CC2)n[nH]1)c1cccc(S(=O)(=O)N2CCCC2)c1 [Example 115, N-(3-cyclopropyl-1H-pyrazol-5-yl)-3-(pyrrolidin-1-ylsulfonyl)benzamide] | 310 |
| CC(C)Oc1cc(NC(=O)c2cccc(S(=O)(=O)c3ccccn3)c2)[nH]n1 [Example 116, N-(3-isopropoxy-1H-pyrazol-5-yl)-3-(pyridin-2-ylsulfonyl)benzamide] | 12 |
| CCOc1cc(NC(=O)c2cccc(S(=O)(=O)c3ccccn3)c2)[nH]n1 [Example 117, N-(3-ethoxy-1H-pyrazol-5-yl)-3-(pyridin-2-ylsulfonyl)benzamide] | 280 |
| CCCOc1cc(NC(=O)c2cccc(S(=O)(=O)c3ccccn3)c2)[nH]n1 [Example 118, N-(3-propoxy-1H-pyrazol-5-yl)-3-(pyridin-2-ylsulfonyl)benzamide] | 24 |
| CCCCOc1cc(NC(=O)c2cccc(S(=O)(=O)c3ccccn3)c2)[nH]n1 [Example 119, N-(3-butoxy-1H-pyrazol-5-yl)-3-(pyridin-2-ylsulfonyl)benzamide] | 6 |
| COc1cccnc1NC(=O)c1cccc(S(=O)(=O)c2ccccn2)c1 [Example 120, N-(3-methoxypyridin-2-yl)-3-(pyridin-2-ylsulfonyl)benzamide] | 390 |
| CC(C)c1ccc(NC(=O)c2cccc(S(=O)(=O)c3ccccn3)c2)cc1 [Example 121, N-(4-isopropylphenyl)-3-(pyridin-2-ylsulfonyl)benzamide] | 180 |
| CC(C)Oc1ccc(NC(=O)c2cccc(S(=O)(=O)c3ccccn3)c2)nc1 [Example 122, N-(5-isopropoxypyridin-2-yl)-3-(pyridin-2-ylsulfonyl)benzamide] | 260 |
| COCC(C)Oc1ccc(NC(=O)c2cccc(S(=O)(=O)c3ccccn3)c2)c(F)c1 (stereo not shown) [Example 123, N-[2-fluoro-4-(2-methoxy-1-methylethoxy)phenyl]-3-(pyridin-2-ylsulfonyl)benzamide] | 2700 |
| O=C(Nc1ccc(OC(CF)CF)cc1F)c1cccc(S(=O)(=O)c2ccccn2)c1 [Example 124, N-{2-fluoro-4-[2-fluoro-1-(fluoromethyl)ethoxy]phenyl}-3-(pyridin-2-ylsulfonyl)benzamide] | 350 |
| O=C(Nc1ccc(OC2CCCC2)cc1F)c1cccc(S(=O)(=O)c2ccccn2)c1 [Example 125, N-[4-(cyclopentyloxy)-2-fluorophenyl]-3-(pyridin-2-ylsulfonyl)benzamide] | 240 |
| CC(C)Oc1ccc(NC(=O)c2cccc(S(=O)(=O)c3ccccn3)c2)c(F)c1 [Example 126, N-(2-fluoro-4-isopropoxyphenyl)-3-(pyridin-2-ylsulfonyl)benzamide] | 150 |
| CC(C)COc1ccc(NC(=O)c2cccc(S(=O)(=O)c3ccccn3)c2)c(F)c1 [Example 127, N-(2-fluoro-4-isobutoxyphenyl)-3-(pyridin-2-ylsulfonyl)benzamide] | 1000 |
| CCC(C)Oc1ccc(NC(=O)c2cccc(S(=O)(=O)c3ccccn3)c2)c(F)c1 (stereo not shown) [Example 128, N-(4-sec-butoxy-2-fluorophenyl)-3-(pyridin-2-ylsulfonyl)benzamide] | 190 |
| CC(C)Oc1ccc(NC(=O)c2cccc(S(=O)(=O)c3ccccn3)c2)nc1Br [Example 129, N-(6-bromo-5-isopropoxypyridin-2-yl)-3-(pyridin-2-ylsulfonyl)benzamide] | 4500 |
| CC(C)Oc1ccc(NC(=O)c2cccc(S(=O)(=O)c3cccnc3)c2)cc1 [Example 130, N-(4-isopropoxyphenyl)-3-(pyridin-3-ylsulfonyl)benzamide] | 1500 |
| Cc1ccnc(S(=O)(=O)c2cccc(C(=O)Nc3ccc(OC(C)C)cc3)c2)c1 [Example 131, N-(4-isopropoxyphenyl)-3-[(4-methylpyridin-2-yl)sulfonyl]benzamide] | 1600 |

| Compound | IC50 [nM] |
| --- | --- |
| Cc1cccc(S(=O)(=O)c2cccc(C(=O)Nc3ccc(OC(C)C)cc3)c2)n1 [Example 132, N-(4-isopropoxyphenyl)-3-[(6-methylpyridin-2-yl)sulfonyl]benzamide] | 680 |
| COc1ccc(NC(=O)c2cccc(S(=O)(=O)c3ccccc3)c2)cc1 [Example 133, N-(4-methoxyphenyl)-3-(phenylsulfonyl)benzamide] | 3700 |
| COc1ccccc1NC(=O)c1cccc(S(=O)(=O)c2ccccc2)c1 [Example 134, N-(2-methoxyphenyl)-3-(phenylsulfonyl)benzamide] | 420 |
| COc1cccnc1NC(=O)c1cccc(S(=O)(=O)c2ccccc2)c1 [Example 135, N-(3-methoxypyridin-2-yl)-3-(phenylsulfonyl)benzamide] | 510 |
| CC(C)c1ccc(NC(=O)c2cccc(S(=O)(=O)c3ccccc3)c2)cc1 [Example 136, N-(4-isopropylphenyl)-3-(phenylsulfonyl)benzamide] | 160 |
| CC(C)c1ccc(NC(=O)c2cccc(S(=O)(=O)c3ccc(F)cc3)c2)cc1 [Example 137, 3-[(4-fluorophenyl)sulfonyl]-N-(4-isopropylphenyl)benzamide] | 690 |
| CC(C)Oc1ccc(NC(=O)c2cccc(S(=O)(=O)c3ncccn3)c2)nc1 [Example 138, N-(5-isopropoxypyridin-2-yl)-3-(pyrimidin-2-ylsulfonyl)benzamide] | 240 |
| CC(C)Oc1ccc(NC(=O)c2cccc(S(=O)(=O)c3ncccn3)c2)cc1 [Example 139, N-(4-isopropoxyphenyl)-3-(pyrimidin-2-ylsulfonyl)benzamide] | 130 |
| O=C(Nc1cc(C2CC2)n[nH]1)c1cccc(S(=O)(=O)c2ncccn2)c1 [Example 140, N-(3-cyclopropyl-1H-pyrazol-5-yl)-3-(pyrimidin-2-ylsulfonyl)benzamide] | 380 |
| CC(C)Oc1ccc(NC(=O)c2cccc(S(=O)(=O)c3cnccn3)c2)cc1 [Example 141, N-(4-isopropoxyphenyl)-3-(pyrazin-2-ylsulfonyl)benzamide] | 1500 |
| CC(C)Oc1ccc(NC(=O)c2cccc(S(=O)(=O)c3nc[nH]n3)c2)cc1 [Example 142, N-(4-isopropoxyphenyl)-3-(1H-1,2,4-triazol-3-ylsulfonyl)benzamide] | 5100 |
| CC(C)Oc1ccc(NC(=O)c2cccc(S(=O)(=O)c3cn[nH]c3)c2)cc1 [Example 143, N-(4-isopropoxyphenyl)-3-(1H-pyrazol-4-ylsulfonyl)benzamide] | 4500 |
| CC(C)Oc1ccc(NC(=O)c2cccc(S(=O)(=O)C3CCCCC3)c2)cc1 [Example 144, 3-(Cyclohexylsulfonyl)-N-(4-isopropoxyphenyl)benzamide] | 74 |
| COc1ccccc1NC(=O)c1cccc(S(=O)(=O)C2CCCCC2)c1 [Example 145, 3-(Cyclohexylsulfonyl)-N-(2-methoxyphenyl)benzamide] | 210 |
| COc1ccc(NC(=O)c2cccc(S(=O)(=O)C3CCCCC3)c2)cc1 [Example 146, 3-(Cyclohexylsulfonyl)-N-(4-methoxyphenyl)benzamide] | 1100 |
| COc1cccnc1NC(=O)c1cccc(S(=O)(=O)C2CCCCC2)c1 [Example 147, 3-(Cyclohexylsulfonyl)-N-(3-methoxypyridin-2-yl)benzamide] | 190 |
| COc1ccc(NC(=O)c2cc(S(=O)(=O)N3CCCCC3)ccc2OC)cc1 [Example 149, 2-Methoxy-N-(4-methoxyphenyl)-5-(piperidin-1-ylsulfonyl)benzamide] | 1000 |
| COc1ccc(S(=O)(=O)N2CCCCC2)cc1C(=O)Nc1ccc(C(C)C)cc1 [Example 150, N-(4-isopropylphenyl)-2-methoxy-5-(piperidin-1-ylsulfonyl)benzamide] | 31 |
| CC(C)Oc1ccc(NC(=O)c2cc(S(=O)(=O)N3CCCCC3)ccc2O)cc1 [Example 151, 2-Hydroxy-N-(4-isopropoxyphenyl)-5-(piperidin-1-ylsulfonyl)benzamide] | 3600 |
| CCOc1ccc(S(=O)(=O)N2CCCCC2)cc1C(=O)Nc1ccc(OC(C)C)cc1 [Example 152, 2-Ethoxy-N-(4-isopropoxyphenyl)-5-(piperidin-1-ylsulfonyl)benzamide] | 180 |
| CC(C)Oc1ccc(NC(=O)c2cc(S(=O)(=O)N3CCCCC3)ccc2OCCC#N)cc1 [Example 153, 2-(Cyanoethoxy)-N-(4-isopropoxyphenyl)-5-(piperidin-1-ylsulfonyl)benzamide] | 420 |
